In US12077503B2, “Substituted cyclic amides and their use as herbicides” (FMC CORPORATION, priority 2015, dated 2024):

Tests used:
Format in all cases: in vivo
Kochia (Kochia scoparia) [1] = assay: Test A preemergence; details: Bassia scoparia, pre-emergence, 240 h, preemergence, 0 to 100 scale where 0 is no effect and 100 is complete control, read-out: Kochia plant response rating
Outline: (§1)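 Visual injury, scored on a 0–100 scale relative to untreated controls, was recorded about 10 d after application. Treatments were a preemergence soil spray over planted seeds or a postemergence spray on plants at the one- to two-leaf stage, 2 to 10 cm tall, all in loam soil–sand blend in the greenhouse.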

[2] = tested on: Galium (catchweed bedstraw, Galium aparine); assay: Test A postemergence; details: Galium, post-emergence, 240 h, Postemergence
Outline: as §1

Kochia (Kochia scoparia) [3] = assay: Test A postemergence; details: Bassia scoparia, post-emergence, 240 h, Postemergence
Outline: as §1

[4] = tested on: barnyardgrass (Echinochloa crus-galli); assay: Test A postemergence; details: Echinochloa crus-galli, post-emergence, 240 h, Postemergence
Outline: as §1

[5] = tested on: blackgrass (Alopecurus myosuroides); assay: Test A postemergence; details: Alopecurus myosuroides, post-emergence, 240 h, Postemergence
Outline: as §1

corn (Zea mays) = assay: Test A postemergence; details: Zea mays, post-emergence, 240 h, Postemergence
Outline: as §1

[6] = tested on: giant foxtail (Setaria faberii); assay: Test A postemergence; details: Setaria faberi, post-emergence, 240 h, Postemergence
Outline: as §1

[7] = tested on: pigweed (Amaranthus retroflexus); assay: Test A postemergence; details: Amaranthus retroflexus, post-emergence, 240 h, Postemergence
Outline: as §1

[8] = tested on: ragweed (common ragweed, Ambrosia elatior); assay: Test A postemergence; details: Ambrosia artemisiifolia, post-emergence, 240 h, Postemergence
Outline: as §1

[9] = tested on: ryegrass, Italian (Italian ryegrass, Lolium multiflorum); assay: Test A postemergence; details: Lolium multiflorum, post-emergence, 240 h, Postemergence
Outline: as §1

[10] = tested on: wheat (Triticum aestivum); assay: Test A postemergence; details: Triticum aestivum, post-emergence, 240 h, Postemergence
Outline: as §1

[11] = tested on: barnyardgrass (Echinochloa crus-galli); assay: Test B flooded paddy test; details: Echinochloa crus-galli, 250 g ai/ha, Flood; 0 to 100 scale where 0 is no effect and 100 is complete control; read-out: Barnyardgrass plant response rating
Outline: (§2)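 Compound goes directly into floodwater once pots are flooded 3 cm above soil, targeting plants at two leaves; the water depth is then held for the test duration. Plants sit 13–15 d in a greenhouse and are rated visually, 100 denoting complete control.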

[12] = tested on: ducksalad (Heteranthera limosa); assay: Test B flooded paddy test; details: Heteranthera limosa, 250 g ai/ha, Flood; 0 to 100 scale where 0 is no effect and 100 is complete control; read-out: Ducksalad plant response rating
Outline: as §2

rice (Oryra sativa) = assay: Test B flooded paddy test; details: Oryza sativa, 250 g ai/ha, Flood; 0 to 100 scale where 0 is no effect and 100 is complete control; read-out: Rice plant response rating
Outline: as §2

[13] = tested on: sedge, umbrella (small-flower umbrella sedge, Cyperus difformis); assay: Test B flooded paddy test; details: Cyperus difformis, 250 g ai/ha, Flood; 0 to 100 scale where 0 is no effect and 100 is complete control; read-out: Sedge, Umbrella plant response rating
Outline: as §2

For `Cc1cc(F)cc([C@H]2CNC(=O)[C@@H]2C(=O)Nc2ccccc2S(C)(=O)=O)c1` [Compound 1307], the pest or weed control at 125 g/ha (Kochia (Kochia scoparia) [1]; 125 g ai/ha, visual injury rating, approximately 10 d) was 20%, the pest or weed control at 500 g/ha (Kochia (Kochia scoparia) [1]; 500 g ai/ha) was 90% and the pest or weed control at 125 g/ha ([2]; 125 g ai/ha, visual rating about 10 d after treatment, read-out: Galium plant response rating (0 to 100 scale)) was 30%. It also gave a pest or weed control at 500 g/ha ([2]; 500 g ai/ha, visual injury, 0 to 100 scale (0 no effect, 100 complete control), approx. 10 d, read-out: Plant response rating, Galium) of 40%, a pest or weed control at 125 g/ha (Kochia (Kochia scoparia) [3]; 125 g ai/ha, visual rating about 10 d after treatment, read-out: Kochia plant response rating (0 to 100 scale)) of 0% and a pest or weed control at 500 g/ha (Kochia (Kochia scoparia) [3]; 500 g ai/ha, visual injury, 0 to 100 scale (0 no effect, 100 complete control), approx. 10 d, read-out: Plant response rating, Kochia) of 40%. For the same molecule, the pest or weed control at 125 g/ha ([4]; 125 g ai/ha, visual rating about 10 d after treatment, read-out: Barnyardgrass plant response rating (0 to 100 scale, 0 no effect, 100 complete control)) was 40%, the pest or weed control at 500 g/ha ([4]; 500 g ai/ha, visual injury, 0 to 100 scale (0 no effect, 100 complete control), approx. 10 d, read-out: Plant response rating, Barnyardgrass) was 90% and the pest or weed control at 125 g/ha ([5]; 125 g ai/ha, visual rating about 10 d after treatment, read-out: Blackgrass plant response rating (0 to 100 scale)) was 0%. It also gave a pest or weed control at 500 g/ha ([5]; 500 g ai/ha, visual injury, 0 to 100 scale (0 no effect, 100 complete control), approx. 10 d, read-out: Plant response rating, Blackgrass) of 0%, a plant injury at 125 g/ha (corn (Zea mays); 125 g ai/ha, visual rating about 10 d after treatment, read-out: Corn plant response rating (0 to 100 scale)) of 0% and a Corn plant response rating (crop injury, 0 = no effect, 100 = complete kill) at 500 g/ha (corn (Zea mays); 500 g ai/ha, visual injury, 0 to 100 scale (0 no effect, 100 complete control), approx. 10 d) of 0%. The pest or weed control at 125 g/ha ([6]; 125 g ai/ha, visual rating about 10 d after treatment, read-out: Foxtail, Giant plant response rating (0 to 100 scale)) was 0%, the pest or weed control at 500 g/ha ([6]; 500 g ai/ha, visual injury, 0 to 100 scale (0 no effect, 100 complete control), approx. 10 d, read-out: Plant response rating, Foxtail, Giant) was 20% and the pest or weed control at 125 g/ha ([7]; 125 g ai/ha, visual rating about 10 d after treatment, read-out: Pigweed plant response rating (0 to 100 scale)) was 0%. For the same molecule, the pest or weed control at 500 g/ha ([7]; 500 g ai/ha, visual injury, 0 to 100 scale (0 no effect, 100 complete control), approx. 10 d, read-out: Plant response rating, Pigweed) was 0%, the pest or weed control at 125 g/ha ([8]; 125 g ai/ha, visual rating about 10 d after treatment, read-out: Ragweed plant response rating (0 to 100 scale)) was 0% and the pest or weed control at 500 g/ha ([8]; 500 g ai/ha, visual injury, 0 to 100 scale (0 no effect, 100 complete control), approx. 10 d, read-out: Plant response rating, Ragweed) was 0%. The pest or weed control at 125 g/ha ([9]; 125 g ai/ha, visual rating about 10 d after treatment, read-out: Ryegrass, Italian plant response rating (0 to 100 scale)) was 0%, the pest or weed control at 500 g/ha ([9]; 500 g ai/ha, visual injury, 0 to 100 scale (0 no effect, 100 complete control), approx. 10 d, read-out: Plant response rating, Ryegrass, Italian) was 0% and the plant injury at 125 g/ha ([10]; 125 g ai/ha, visual rating about 10 d after treatment, read-out: Wheat plant response rating (0 to 100 scale)) was 0%. For the same molecule, the plant injury at 500 g/ha ([10]; 500 g ai/ha, visual injury, 0 to 100 scale (0 no effect, 100 complete control), approx. 10 d, read-out: Plant response rating, Wheat) was 0%, the pest or weed control at 250 g/ha [11] was 30% and the pest or weed control at 250 g/ha [12] was 100%. The pest or weed control at 250 g/ha (rice (Oryra sativa)) was 20% and the pest or weed control at 250 g/ha [13] was 0%.
